Key:
Format in all cases: cell-based
[1] = tested on: HT29; test: Cancer cell panel, cell viability (resazurin): Colon, HT29; details: 72 hours, labelled drug combined with Example 3
[2] = tested on: BT-20; test: Cancer cell panel, cell viability (resazurin): Breast, BT-20; details: BT-20 (Breast), 72 hours; labelled drug combined with Example 3
[3] = tested on: H460; test: Cancer cell panel, cell viability (resazurin): NSCLC, H460; details: 72 hours, labelled drug combined with Example 3
[4] = tested on: K562; test: Cancer cell panel, cell viability (resazurin): Leukemia, K562; details: 72 hours, labelled drug combined with Example 3
Protocol: (§1) Cells were plated in 96-well plates and treated for 72 hours with a serially diluted CK2 inhibitor or anti-cancer drug or their combination. The suspension cell lines were treated right after plating, while the adherent cells were allowed to attach overnight prior to the start of the treatment.
(§2) Cell viability was determined by adding resazurin to cell cultures and measuring fluorescence with a plate reader. Relative cell viability was calculated by dividing the cell viability signal from a test sample by that of a non-treated control. […] Bliss Independence and Highest Single Agent models were used to determine if there is synergy, additivity or antagonism between the CK2 inhibitor and an anti-cancer drug.

[5] = tested on: Mia-Paca-2; test: Cancer cell panel, cell viability (resazurin): Pancreatic, Mia-Paca-2; details: Mia-Paca-2 (Pancreatic), 72 hours; labelled drug combined with Example 3
Protocol: as §1, §2

[6] = tested on: BxPC3; test: Cancer cell panel, cell viability (resazurin): Pancreatic, BxPC3; details: 72 hours, labelled drug combined with Example 3
[7] = tested on: HCT116; test: Cancer cell panel, cell viability (resazurin): Colon, HCT116; details: 72 hours, labelled drug combined with Example 3
Protocol: as §1, §2

[8] = tested on: Panc-1; test: Cancer cell panel, cell viability (resazurin): Pancreatic, Panc-1; details: Panc-1 (Pancreatic), 72 hours; labelled drug combined with Example 3
Protocol: as §1, §2

[9] = tested on: Ramos; test: Cancer cell panel, cell viability (resazurin): Burkitt's Lymphoma, Ramos; details: 72 hours, labelled drug combined with Example 3
Protocol: as §1, §2

[10] = tested on: Caov-3; test: Cancer cell panel, cell viability (resazurin): Ovarian, Caov-3; details: Caov-3 (Ovarian), 72 hours; labelled drug combined with Example 3
[11] = tested on: A549; test: Cancer cell panel, cell viability (resazurin): NSCLC, A549; details: 72 hours, labelled drug combined with Example 3
[12] = tested on: SkBr-3; test: Cancer cell panel, cell viability (resazurin): Breast, SkBr-3; details: SkBr-3 (Breast), 72 hours; labelled drug combined with Example 3
Protocol: as §1, §2

[13] = tested on: MDA-MB-231; test: Cancer cell panel, cell viability (resazurin): Breast, MDA-MB-231; details: MDA-MB-231 (Breast), 72 hours; labelled drug combined with Example 3
Protocol: as §1, §2

[14] = tested on: Daudi; test: Cancer cell panel, cell viability (resazurin): Burkitt's Lymphoma, Daudi; details: 72 hours, labelled drug combined with Example 3
[15] = tested on: Colo205; test: Cancer cell panel, cell viability (resazurin): Colon, Colo205; details: 72 hours, labelled drug combined with Example 3
Protocol: as §1, §2

[16] = tested on: Raji; test: Cancer cell panel, cell viability (resazurin): Burkitt's Lymphoma, Raji; details: 72 hours, labelled drug combined with Example 3
[17] = tested on: BT-474; test: Cancer cell panel, cell viability (resazurin): Breast, BT-474; details: BT-474 (Breast), 72 hours; labelled drug combined with Example 3
[18] = tested on: PC3; test: Cancer cell panel, cell viability (resazurin): Prostate, PC3; details: 72 hours, labelled drug combined with Example 3
Protocol: as §1, §2

[19] = tested on: H1299; test: Cancer cell panel, cell viability (resazurin): NSCLC, H1299; details: 72 hours, labelled drug combined with Example 3
[20] = tested on: HL60; test: Cancer cell panel, cell viability (resazurin): Leukemia, HL60; details: 72 hours, labelled drug combined with Example 3
[21] = tested on: Caki-1; test: Cancer cell panel, cell viability (resazurin): Renal, Caki-1; details: Caki-1 (Renal), 72 hours; labelled drug combined with Example 3
[22] = tested on: SK-MEL-24; test: Cancer cell panel, cell viability (resazurin): Melanoma, SK-MEL-24; details: SK-MEL-24 (Melanoma), 72 hours; labelled drug combined with Example 3
[23] = tested on: A2780; test: Cancer cell panel, cell viability (resazurin): Ovarian, A2780; details: 72 hours, labelled drug combined with Example 3
Protocol: as §1, §2

[24] = tested on: T47D; test: Cancer cell panel, cell viability (resazurin): Breast, T47D; details: 72 hours, labelled drug combined with Example 3
[25] = tested on: ACHN; test: Cancer cell panel, cell viability (resazurin): Renal, ACHN; details: 72 hours, labelled drug combined with Example 3
[26] = tested on: LoVo; test: Cancer cell panel, cell viability (resazurin): Colon, LoVo; details: 72 hours, labelled drug combined with Example 3
[27] = tested on: WM-115; test: Cancer cell panel, cell viability (resazurin): Melanoma, WM-115; details: WM-115 (Melanoma), 72 hours; labelled drug combined with Example 3
[28] = tested on: H23; test: Cancer cell panel, cell viability (resazurin): NSCLC, H23; details: 72 hours, labelled drug combined with Example 3
[29] = tested on: U266; test: Cancer cell panel, cell viability (resazurin): multiple myeloma, U266; details: 72 hours, labelled drug combined with Example 3
[30] = tested on: Caki-2; test: Cancer cell panel, cell viability (resazurin): Renal, Caki-2; details: Caki-2 (Renal), 72 hours; labelled drug combined with Example 3
Protocol: as §1, §2

[31] = tested on: EOL-1; test: Cancer cell panel, cell viability (resazurin): Leukemia, EOL-1; details: EOL-1 (Leukemia), 72 hours; labelled drug combined with Example 3
Protocol: as §1, §2

[32] = tested on: RPMI8226; test: Cancer cell panel, cell viability (resazurin): multiple myeloma, RPMI8226; details: 72 hours, labelled drug combined with Example 3
Protocol: as §1, §2

[33] = tested on: H2122; test: Cancer cell panel, cell viability (resazurin): NSCLC, H2122; details: 72 hours, labelled drug combined with Example 3
Protocol: as §1, §2

[34] = tested on: DLD-1; test: Cancer cell panel, cell viability (resazurin): Colon, DLD-1; details: DLD-1 (Colon), 72 hours; labelled drug combined with Example 3
[35] = tested on: MDA-MB-157; test: Cancer cell panel, cell viability (resazurin): Breast, MDA-MB-157; details: MDA-MB-157 (Breast), 72 hours; labelled drug combined with Example 3
[36] = tested on: SKOV-3; test: Cancer cell panel, cell viability (resazurin): Ovarian, SKOV-3; details: SKOV-3 (Ovarian), 72 hours; labelled drug combined with Example 3
[37] = tested on: A375; test: Cancer cell panel, cell viability (resazurin): Melanoma, A375; details: 72 hours, labelled drug combined with Example 3
[38] = tested on: H1975; test: Cancer cell panel, cell viability (resazurin): NSCLC, H1975; details: 72 hours, labelled drug combined with Example 3
[39] = tested on: OVCAR-3; test: Cancer cell panel, cell viability (resazurin): Ovarian, OVCAR-3; details: OVCAR-3 (Ovarian), 72 hours; labelled drug combined with Example 3
Protocol: as §1, §2

[40] = tested on: MCF7; test: Cancer cell panel, cell viability (resazurin): Breast, MCF7; details: 72 hours, labelled drug combined with Example 3
Protocol: as §1, §2

[41] = tested on: MDA-MB-453; test: Cancer cell panel, cell viability (resazurin): Breast, MDA-MB-453; details: MDA-MB-453 (Breast), 72 hours; labelled drug combined with Example 3

Structure (SMILES): CC(C)C[C@H](NC(=O)[C@H](Cc1ccccc1)NC(=O)c1cnccn1)B(O)O [Bortezomib, bortezomib]
- synergy, additivity or antagonism of the combination of Example 3 with the anti-cancer drug [1]: + (Additive relative to each agent alone (CI = 0.9-1 by Bliss Independence Model and <0.9 by Highest Single Agent Model))
- synergy, additivity or antagonism of the combination of Example 3 with the anti-cancer drug [2]: + + (Slight synergy relative to each agent alone (CI = 0.75-0.9 by Bliss Independence Model))
- synergy, additivity or antagonism of the combination of Example 3 with the anti-cancer drug [3]: + + (Slight synergy relative to each agent alone (CI = 0.75-0.9 by Bliss Independence Model))
- synergy, additivity or antagonism of the combination of Example 3 with the anti-cancer drug [4]: + (Additive relative to each agent alone (CI = 0.9-1 by Bliss Independence Model and <0.9 by Highest Single Agent Model))
- synergy, additivity or antagonism of the combination of Example 3 with the anti-cancer drug [5]: + + (Slight synergy relative to each agent alone (CI = 0.75-0.9 by Bliss Independence Model))
- synergy, additivity or antagonism of the combination of Example 3 with the anti-cancer drug [6]: + + + (Synergy relative to each agent alone (CI = 0.4-0.74 by Bliss Independence Model))
- synergy, additivity or antagonism of the combination of Example 3 with the anti-cancer drug [7]: + + (Slight synergy relative to each agent alone (CI = 0.75-0.9 by Bliss Independence Model))
- synergy, additivity or antagonism of the combination of Example 3 with the anti-cancer drug [8]: + (Additive relative to each agent alone (CI = 0.9-1 by Bliss Independence Model and <0.9 by Highest Single Agent Model))
- synergy, additivity or antagonism of the combination of Example 3 with the anti-cancer drug [9]: + (Additive relative to each agent alone (CI = 0.9-1 by Bliss Independence Model and <0.9 by Highest Single Agent Model))
- synergy, additivity or antagonism of the combination of Example 3 with the anti-cancer drug [10]: + (Additive relative to each agent alone (CI = 0.9-1 by Bliss Independence Model and <0.9 by Highest Single Agent Model))
- synergy, additivity or antagonism of the combination of Example 3 with the anti-cancer drug [11]: + + + (Synergy relative to each agent alone (CI = 0.4-0.74 by Bliss Independence Model))
- synergy, additivity or antagonism of the combination of Example 3 with the anti-cancer drug [12]: + (Additive relative to each agent alone (CI = 0.9-1 by Bliss Independence Model and <0.9 by Highest Single Agent Model))
- synergy, additivity or antagonism of the combination of Example 3 with the anti-cancer drug [13]: + (Additive relative to each agent alone (CI = 0.9-1 by Bliss Independence Model and <0.9 by Highest Single Agent Model))
- synergy, additivity or antagonism of the combination of Example 3 with the anti-cancer drug [14]: + (Additive relative to each agent alone (CI = 0.9-1 by Bliss Independence Model and <0.9 by Highest Single Agent Model))
- synergy, additivity or antagonism of the combination of Example 3 with the anti-cancer drug [15]: − (Slightly antagonistic relative to each agent alone (CI = 1.1-1.2 by Highest Single Agent Model))
- synergy, additivity or antagonism of the combination of Example 3 with the anti-cancer drug [16]: + + (Slight synergy relative to each agent alone (CI = 0.75-0.9 by Bliss Independence Model))
- synergy, additivity or antagonism of the combination of Example 3 with the anti-cancer drug [17]: + + (Slight synergy relative to each agent alone (CI = 0.75-0.9 by Bliss Independence Model))
- synergy, additivity or antagonism of the combination of Example 3 with the anti-cancer drug [18]: + (Additive relative to each agent alone (CI = 0.9-1 by Bliss Independence Model and <0.9 by Highest Single Agent Model))
- synergy, additivity or antagonism of the combination of Example 3 with the anti-cancer drug [19]: + (Additive relative to each agent alone (CI = 0.9-1 by Bliss Independence Model and <0.9 by Highest Single Agent Model))
- synergy, additivity or antagonism of the combination of Example 3 with the anti-cancer drug [20]: + (Additive relative to each agent alone (CI = 0.9-1 by Bliss Independence Model and <0.9 by Highest Single Agent Model))
- synergy, additivity or antagonism of the combination of Example 3 with the anti-cancer drug [21]: + (Additive relative to each agent alone (CI = 0.9-1 by Bliss Independence Model and <0.9 by Highest Single Agent Model))
- synergy, additivity or antagonism of the combination of Example 3 with the anti-cancer drug [22]: + + + (Synergy relative to each agent alone (CI = 0.4-0.74 by Bliss Independence Model))
- synergy, additivity or antagonism of the combination of Example 3 with the anti-cancer drug [23]: + + (Slight synergy relative to each agent alone (CI = 0.75-0.9 by Bliss Independence Model))
- synergy, additivity or antagonism of the combination of Example 3 with the anti-cancer drug [24]: + (Additive relative to each agent alone (CI = 0.9-1 by Bliss Independence Model and <0.9 by Highest Single Agent Model))
- synergy, additivity or antagonism of the combination of Example 3 with the anti-cancer drug [25]: + + (Slight synergy relative to each agent alone (CI = 0.75-0.9 by Bliss Independence Model))
- synergy, additivity or antagonism of the combination of Example 3 with the anti-cancer drug [26]: + (Additive relative to each agent alone (CI = 0.9-1 by Bliss Independence Model and <0.9 by Highest Single Agent Model))
- synergy, additivity or antagonism of the combination of Example 3 with the anti-cancer drug [27]: + + (Slight synergy relative to each agent alone (CI = 0.75-0.9 by Bliss Independence Model))
- synergy, additivity or antagonism of the combination of Example 3 with the anti-cancer drug [28]: + (Additive relative to each agent alone (CI = 0.9-1 by Bliss Independence Model and <0.9 by Highest Single Agent Model))
- synergy, additivity or antagonism of the combination of Example 3 with the anti-cancer drug [29]: + (Additive relative to each agent alone (CI = 0.9-1 by Bliss Independence Model and <0.9 by Highest Single Agent Model))
- synergy, additivity or antagonism of the combination of Example 3 with the anti-cancer drug [30]: + (Additive relative to each agent alone (CI = 0.9-1 by Bliss Independence Model and <0.9 by Highest Single Agent Model))
- synergy, additivity or antagonism of the combination of Example 3 with the anti-cancer drug [31]: + + (Slight synergy relative to each agent alone (CI = 0.75-0.9 by Bliss Independence Model))
- synergy, additivity or antagonism of the combination of Example 3 with the anti-cancer drug [32]: + (Additive relative to each agent alone (CI = 0.9-1 by Bliss Independence Model and <0.9 by Highest Single Agent Model))
- synergy, additivity or antagonism of the combination of Example 3 with the anti-cancer drug [33]: + (Additive relative to each agent alone (CI = 0.9-1 by Bliss Independence Model and <0.9 by Highest Single Agent Model))
- synergy, additivity or antagonism of the combination of Example 3 with the anti-cancer drug [34]: + + + (Synergy relative to each agent alone (CI = 0.4-0.74 by Bliss Independence Model))
- synergy, additivity or antagonism of the combination of Example 3 with the anti-cancer drug [35]: + + + (Synergy relative to each agent alone (CI = 0.4-0.74 by Bliss Independence Model))
- synergy, additivity or antagonism of the combination of Example 3 with the anti-cancer drug [36]: + + + (Synergy relative to each agent alone (CI = 0.4-0.74 by Bliss Independence Model))
- synergy, additivity or antagonism of the combination of Example 3 with the anti-cancer drug [37]: + (Additive relative to each agent alone (CI = 0.9-1 by Bliss Independence Model and <0.9 by Highest Single Agent Model))
- synergy, additivity or antagonism of the combination of Example 3 with the anti-cancer drug [38]: + (Additive relative to each agent alone (CI = 0.9-1 by Bliss Independence Model and <0.9 by Highest Single Agent Model))
- synergy, additivity or antagonism of the combination of Example 3 with the anti-cancer drug [39]: + (Additive relative to each agent alone (CI = 0.9-1 by Bliss Independence Model and <0.9 by Highest Single Agent Model))
- synergy, additivity or antagonism of the combination of Example 3 with the anti-cancer drug [40]: − − (Antagonistic relative to each agent alone (CI = 1.2-1.49 by Highest Single Agent Model))
- synergy, additivity or antagonism of the combination of Example 3 with the anti-cancer drug [41]: + (Additive relative to each agent alone (CI = 0.9-1 by Bliss Independence Model and <0.9 by Highest Single Agent Model))

Source: patent US10227344B2, “CK2 inhibitors, compositions and methods thereof” (Polaris Pharmaceuticals, Inc., priority 2016, dated 2019)
